Source: patent US20040152684A1, “Use of antigestagens for inhibiting accelerated endometrial maturation during infertility treatment” (priority 2001, published 2004)

Test system: endometrium of the superovulated pseudopregnant rabbit
Test: Endometrial receptivity in the superovulated pseudopregnant rabbit model
Assay type: in vivo, New Zealand White rabbits
Settings: for endometrial maturation (in words): compared with Group 1 controls not subject to ovarian hyperstimulation; for Mc-Phail [x ± SD] (endometrial transformation index, 1 no to 4 high transformation) / Uterine wet weight [x ± SD]: measured at d5 p.hCG; for Uteroglobin ISH [expression in luminal epithelial cells]: uteroglobin mRNA at d5 p.hCG
Procedure: The effects of a 17α-fluoralkylated progesterone receptor antagonist on endometrial activity was evaluated in the superovulated pseudopregnant rabbit model. The pseudopregnancy of the rabbit has proven to be a model system for the human luteal phase (Beier and Kuhnel, 1973, Hormone Res. 4:1-27; Fischer et al., 1985, Fertilitat 1:101-109. In this species, ovarian stimulation induces an advancement of secretory transformation (Delbos-Winter et al., 1987, Fertilitat 3: 87-93) as well as an enhancement of gland formation.
A total of 25 sexually mature nulliparous New Zealand White rabbits with a body weight of 3.1 to 4.0 kg were used for the analysis. The animals were divided into two control groups (groups 1 and 2) and three treatment groups (groups 3-5), with five animals in each group.
Control group 1 received 75 international units (IU) of human chorionic gonadotropin (hCG) administered intravenously in order to induce pseudopregnancy. The day of hCG-injection was designated as day 0 of pseudopregnancy (d0 p.hCG).
Control group 2 and treatment groups 3, 4, and 5 were gonadotropin-stimulated with 5 IU of the human menopausal gonadotropin (HMG) Pergonal® (Serono Pharma, Unterschleipheim, Germany) for 3 days, by subcutaneous injection, in order to induce multiple follicular growth. Pseudopregnancy was induced by the administration of human chorionic gonadotropin (hCG) as described for control group 1 above.
Treatment groups 3, 4 and 5 also received a single per oral application of a 17α-fluoralkylated progesterone receptor antagonist (Compound A) two days after pseudopregnancy induction with the administration of human chorionic gonadotropin (d2 p.hCG).
Animals in all treatment groups were sacrificed on day 5 following pseudopregnancy induction (d5 p.hCG), and uteri were removed. Relative uterine wet weights were determined (in mg/100 g body weight) and a part of the uterus was snap frozen in liquid nitrogen for determination of uteroglobin expression by in situ hybridization. Uteroglobin expression is known as a highly sensitive parameter for determination of endometrial receptivity (Beier, H. M., 1968, Biochem Biophys. Acta. 160:289-291; Beier, H. M., 1982, in: Beier, H. M. and Karlson, P. (eds.), Proteins and Steroids in Early Pregnancy), and is a marker for secretory activity (Beier, 1976, J. Reprod. Fertil. Suppl. 25:53-69) and differentiation of the endometrial epithelium (Krusche & Beier, 1994, Ann. Anat. 176:23-31). In situ hybridization for detection of uteroglobin expression was conducted as previously described in Krusche & Beier, above. Another piece of the uterus was removed and processed for paraffin histology in order to determine the endometrial transformation status using the McPhail-Index (McPhail M k, 1934, J. Phys. 83:145-156) The McPhail Index reflects different degrees of progestogenic (transforming) activity in the rabbit endometrium:
3. pronounced transformation

[1] = Group 3: HMG + hCG, single per oral 0.1 mg/kg on d2 p.hCG
[2] = Group 4: HMG + hCG, single per oral 1 mg/kg on d2 p.hCG
[3] = Group 5: HMG + hCG, single per oral 10 mg/kg on d2 p.hCG

CC(=O)c1ccc([C@H]2C[C@@]3(C)[C@@H](CC[C@@]3(O)C(F)(F)C(F)(F)F)[C@@H]3CCC4=CC(=O)CCC4=C32)cc1 [Compound A, 11β-(4-acetylphenyl)-17β-hydroxy-17α-(1,1,2,2,2-pentafluoroethyl)estra-4,9-dien-3-one]
endometrial maturation (in words) (0.1 mg/kg (Group 3)): roughly corresponded with that of control animals which were not subject to ovarian hyperstimulation
endometrial maturation (in words) (1 mg/kg (group 4)): delayed the timing of maturation beyond that observed in animals which were not subject to hyperovarian stimulation
endometrial maturation (in words) (10 mg/kg (group 5)): delayed the timing of maturation beyond that observed in animals which were not subject to hyperovarian stimulation
Mc-Phail [x ± SD] (endometrial transformation index, 1 no to 4 high transformation) [1]: 3.0 ± 0.1
Uterine wet weight [x ± SD] [1]: 305 ± 48 mg/kg
Uteroglobin ISH [expression in luminal epithelial cells] [1]: very high
Mc-Phail [x ± SD] (endometrial transformation index, 1 no to 4 high transformation) [2]: 1.5 ± 0.3
Uterine wet weight [x ± SD] [2]: 227 ± 56 mg/kg
Uteroglobin ISH [expression in luminal epithelial cells] [2]: very low
Mc-Phail [x ± SD] (endometrial transformation index, 1 no to 4 high transformation) [3]: 1.1 ± 0.3
Uterine wet weight [x ± SD] [3]: 144 ± 30 mg/kg
Uteroglobin ISH [expression in luminal epithelial cells] [3]: absent
